Assay: In vivo oral pharmacokinetics in mice
Details: c57BL/6 male mice; for AUC 0-inf / CL/F / Cmax / Tmax / t1/2: 20 mg/kg gavage, in water; for oral bioavailability: water as vehicle
Method: The main pharmacokinetic parameters of 4-PhDMA, pANDMA, and pANDMA mesylate were evaluated in c57BL/6 male mice, using water as dispersing vehicle.
All experimental procedures involving animals were conducted in accordance with the 3R principle to minimize their pain and discomfort. […] For the PK analysis, C57Bl6 male mice (n = 3 per time point) were gavaged with selected compounds (20 mg/kg), suspended in water, or dissolved in SEDDS formulations, after an overnight fast. […] 8.0 software (GraphPad Software Inc., San Diego, CA, USA), when appropriate. If not otherwise stated, the PK data are expressed as mean ± SD. p < 0.05 was considered statistically significant.
The TMA analogs were extracted and analyzed from mouse plasma as already reported. Briefly, 100 µL of plasma were treated with 300 µL of cold acetonitrile spiked with 80 nM of internal standard (IS, 6,4′-dimethylangelicin), and then the samples were centrifuged for 10 min at 12,000× g (Hettich Mikro 120 Benchtop Centrifuge) and 25 °C. Ten microliters of the supernatant were injected into the UHPLC system.
The analytical column was a Kinetex 2.6 μm C18 Polar, 100 A, 100 × 2.1 mm (Phenomenex, Bologna, Italy), thermostated at 30 °C. The mobile phase components A and B were water and methanol, respectively, both containing 10 mM ammonium formate. The eluent flow rate was 0.25 mL/min. […] MS data were analyzed using the Mass Hunter Qualitative Analysis software (Agilent Technologies, Palo Alto, CA, USA).
Chromatographic peaks of the TMA analog were identified and integrated by considering the Extracted Ion Chromatogram (EIC) of the [M+H]^+ species selected with a window of 5 ppm and normalized by the IS. Quantification of TMA analogs was carried out by external calibration of normalized signals using a seven-point calibration curve obtained by spiking blank plasma with each TMA analog in the range of 20–3000 nM.

SMILES | AUC 0-inf [µM·h] | CL/F [mL/h/g] | Cmax [nM] | Tmax [h] | t1/2 [h] | oral bioavailability | Cmax (20 mg/kg) [nM]
Cc1cc2c(-c3ccccc3)cc(=O)oc2c2c(C)coc12 [4-PhDMA] | 2.74736 ± 0.51361 | 0.0014 ± 0.0014 | 222 ± 184 | 1.25 ± 1.06 | 21.13 ± 0.98 | very low | 
Cc1cc(=O)oc2c1cc(-c1ccc(N)cc1)c1occ(C)c12 [pANDMA] | 2.4054 ± 0.2082 | 0.0083 ± 0.0007 |  | 0.5 ± 0 | 1.91 ± 0.71 | very low | 1520 ± 261
